Laboratory results from article PMC8779631, “Binding Properties of Odorant-Binding Protein 4 of Tirathaba rufivena to Areca catechu Volatiles” (Plants, 2022).

Experiments:
PregOBP56a = tested on: PregOBP56a; parameters: method as in PMID 23326317; conditions: cited from earlier work
TrufOBP4 [1] = experiment: Fluorescence competitive binding assay (displacement of 1-NPN); parameters: species or system Tirathaba rufivena; conditions: 2 μM protein, 50 mM Tris-HCl pH 7.4; for Ki: Ki = IC50/(1 + [1-NPN]/K1-NPN); for IC50: ligand concentration displacing 50% of 1-NPN
Description: (§1) The binding ability of purified recombinant OBPs was evaluated with an F-7000 fluorescence spectrometer (Hitachi, Tokyo, Japan). The fluorescence spectra were recorded between 360 and 650 nm. N-Phenyl-1-naphthylamine (1-NPN) was selected as the fluorescent reporter and dissolved in chromatographic methanol at a concentration of 1 mM. The purified TrufOBP4 was dissolved in 50 mM Tris-HCl (pH 7.4) at a final concentration of 2 μM. The data for the 1-NPN-TrufOBP4 complex formation were obtained by titration of 2 μM protein with increasing concentrations (2 to 20 μM) of 1-NPN. The dissociation constant of 1-NPN (K1-NPN) was calculated using Prism 8 (GraphPad Software, San Diego, USA). To evaluate the binding ability of TrufOBP4 with volatiles, 1-NPN was replaced with different odor compounds from the TrufOBP4/1-NPN complex. The odor ligands were dissolved in chromatographic methanol at a concentration of 1 mM and added as aliquots to the protein solution. The spectral results were obtained, and the dissociation constants of the competitors were calculated with the formula: Ki = IC50/(1 + [1-NPN]/K1-NPN), where 1-NPN represents the free concentration of 1-NPN, and IC50 represents the ligand concentration displacing 50% of the fluorescent reporter.

LsatOBP1 = tested on: LsatOBP1; parameters: method as in PMID 11274212; conditions: cited from earlier work
MbraPBP1 = tested on: MbraPBP1; parameters: method as in PMID 11274212; conditions: cited from earlier work
AipsGOBP2 = tested on: AipsGOBP2; parameters: method as in PMID 29778539, PMID 29543772; conditions: cited from earlier work
Hyphantria cunea = tested on: Hyphantria cunea; parameters: method as in PMID 32547409; conditions: stimulation with the compound; cited from earlier work
Tribolium castaneum = tested on: Tribolium castaneum; parameters: method as in earlier work; conditions: cited from earlier work
Holotrichia oblita = tested on: Holotrichia oblita; parameters: method as in earlier work; conditions: cited from earlier work
Rhyzopertha dominica = tested on: Rhyzopertha dominica; parameters: method as in earlier work; conditions: cited from earlier work
EoblGOBP2 = tested on: EoblGOBP2; parameters: method as in PMID 29778539, PMID 29543772; conditions: cited from earlier work
TrufOBP4 [2] = experiment: Binding of fluorescent reporter 1-NPN (titration, Scatchard plot); parameters: species or system Tirathaba rufivena; conditions: 2 μM protein titrated with 2 to 20 μM 1-NPN; read-out: K1-NPN (dissociation constant of 1-NPN)
Description: as §1

Row | Structure (SMILES) | Ki (TrufOBP4 [1]) [µM] | IC50 (TrufOBP4 [1]) [µM] | other results
1 | CCCCCCCCCCCCCCCCCC(=O)O [stearic] | – | – | binding affinity (PregOBP56a): high binding affinity
2 | CCCCOC(=O)c1ccccc1C(=O)OCCCC [Dibutyl phthalate] | 4.61 | 5.29 | binding affinity (AipsGOBP2): outstanding binding affinity; mating rates (Hyphantria cunea): significantly increased; effect on behavior (Tribolium castaneum): repellent; effect on behavior (Holotrichia oblita): attractive effect; effect on behavior (Rhyzopertha dominica): repellent; binding affinity (EoblGOBP2): outstanding binding affinity
3 | C=C(C)[C@H]1CC=C(C)CC1 [Cinene] | > 50 | > 50 | –
4 | CCCCCCOC(C)=O [Hexyl acetate] | > 50 | > 50 | –
5 | COC(=O)c1ccccc1O [Methyl salicylate] | > 50 | > 50 | –
6 | c1ccc(Nc2cccc3ccccc23)cc1 [1-NPN, N-Phenyl-1-naphthylamine] | – | – | Kd (TrufOBP4 [2]): 6.79 µM
7 | CC12CCC(CC1)C(C)(C)O2 [Cineole] | > 50 | > 50 | –
8 | CCCCC/C=C\C/C=C\CCCCCCCC(=O)O [linoleic] | – | – | binding affinity (PregOBP56a): high binding affinity
9 | CCCCCCCC/C=C\CCCCCCCC(=O)O [oleic] | – | – | binding affinity (PregOBP56a): high binding affinity
10 | C=Cc1ccccc1 [Styrene] | 36.2 | 41.5 | –
11 | C=CC(C)(O)CCC=C(C)C (stereo not drawn) [Linalol] | > 50 | > 50 | –
12 | CCC(C)C(=O)OCCC(C)C (stereo not drawn) [3-Methylbutyl 2-methylbutanoate] | 45.8 | > 50 | –

More lines, main results first:

Row | Ki (TrufOBP4 [1]) [µM] | IC50 (TrufOBP4 [1]) [µM] | Structure (SMILES) | other results
13 | 5.28 | 6.06 | CCCCCCCCCCCCCCCC(=O)O [Palmitic acid] | binding affinity (PregOBP56a): high binding affinity; binding (LsatOBP1): bind well; binding (MbraPBP1): bind well
14 | 29.1 | 33.4 | C=C(C)[C@@H]1CC=C(C)CC1 [(S)-(−)-Limonene] | –
15 | 19.5 | 22.4 | CC1=CCC2C(C1)C2(C)C (stereo not drawn) [3-Carene] | –
16 | 21 | 24.1 | CCCCC(CC)CO (stereo not drawn) [2-Ethylhexanol] | –
17 | 1.16 | 1.33 | CCCCC(CC)COC(=O)C=Cc1ccc(OC)cc1 (stereo not drawn) [Octyl methoxycinnamate] | –
18 | 3.52 | 4.04 | CCCCCCCCCCCCCC(=O)O [Myristic acid] | –
19 | 29 | 33.3 | C=C1CCC2CC1C2(C)C (stereo not drawn) [β-Pinene] | –
20 | 21 | 24.1 | CC(=O)OCCC(C)C [Isoanyl acetate] | –
21 | 17.3 | 19.8 | C=CC(=C)CCC=C(C)C [Myrcene] | –
22 | 22.1 | 25.3 | C=C(C)[C@H]1CC=C(C)CC1 [(R)-(+)-limonene] | –
23 | 40.6 | 46.6 | CCC=CCCOC(C)=O [3-Hexenyl acetate] | –
